For eight compounds, Ki results are on record in publication PMC6179086 (Journal of Enzyme Inhibition and Medicinal Chemistry, 2018).

Usually pKi stands for the negative decadic logarithm of the Ki, by convention in mol/L. Higher therefore signals a low Ki.

pKi: −log10 of the molar value.

Common to all, as to experiment: stopped-flow CO2 hydration assay
Assay type in all cases: biochemical

One assay has as its target T1, Can2-CA (Cryptococcus neoformans, UniProt Q3I4V7).
T1 construct: recombinant beta-CA, produced as reported earlier; dimer in the docking model
T1 sequence (Q3I4V7 1-239): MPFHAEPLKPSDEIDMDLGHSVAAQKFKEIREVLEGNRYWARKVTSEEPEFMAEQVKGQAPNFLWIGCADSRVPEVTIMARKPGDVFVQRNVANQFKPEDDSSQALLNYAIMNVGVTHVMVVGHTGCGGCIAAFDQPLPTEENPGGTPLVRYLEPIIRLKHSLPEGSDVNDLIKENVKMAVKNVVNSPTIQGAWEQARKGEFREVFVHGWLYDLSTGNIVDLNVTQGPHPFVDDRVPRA
The conditions noted are these: read-out: Inhibition constant, Ki (μM) / β-family / Can2.

A further assay has as its target T2, VchCA (Vibrio cholerae, UniProt A0A086SLX8).
T2 construct: gene can

The target of another assay is T3, SspCA (Sulfurihydrogenibium sp. YO3AOP1, UniProt B2V8E3).
T3 construct: recombinant bacterial alpha-CA, produced as reported earlier
T3 sequence (B2V8E3 21-246): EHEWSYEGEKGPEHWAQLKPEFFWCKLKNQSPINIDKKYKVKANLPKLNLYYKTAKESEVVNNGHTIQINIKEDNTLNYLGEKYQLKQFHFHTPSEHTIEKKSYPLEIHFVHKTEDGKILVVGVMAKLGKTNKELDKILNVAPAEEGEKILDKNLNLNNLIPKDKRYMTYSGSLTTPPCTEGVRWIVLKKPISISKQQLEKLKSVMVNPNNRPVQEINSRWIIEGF
The conditions noted are these: read-out: Inhibition constant, Ki (μM) / α-family / Ssp.

The next assay concerns the target T4, MgCA (Malassezia globosa, UniProt A8Q1N3).
T4 construct: gene MGL_1814
T4 sequence (A8Q1N3 1-241): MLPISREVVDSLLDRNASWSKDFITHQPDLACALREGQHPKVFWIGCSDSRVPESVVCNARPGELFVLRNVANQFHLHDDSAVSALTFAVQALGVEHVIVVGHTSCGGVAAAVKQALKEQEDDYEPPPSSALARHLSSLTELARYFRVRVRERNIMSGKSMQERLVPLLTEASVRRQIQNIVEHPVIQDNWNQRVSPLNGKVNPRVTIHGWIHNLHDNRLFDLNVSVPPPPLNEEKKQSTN
The conditions noted are these: read-out: Inhibition constant, Ki (μM) / β-family / Mg.

The next assay concerns the target T5, hCA IX (Homo sapiens, UniProt Q16790).
T5 construct: gene CA9
The conditions noted are these: read-out: Inhibition constant, Ki (μM) / α-family / CAI.

T2 sequence (A0A086SLX8 1-222): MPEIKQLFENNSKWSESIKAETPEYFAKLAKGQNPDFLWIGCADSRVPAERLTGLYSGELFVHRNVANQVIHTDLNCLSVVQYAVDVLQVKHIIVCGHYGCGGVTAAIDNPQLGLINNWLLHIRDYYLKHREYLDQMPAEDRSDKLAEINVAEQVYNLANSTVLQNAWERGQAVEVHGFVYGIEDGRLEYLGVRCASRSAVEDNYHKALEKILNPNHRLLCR

For the compound `NC(=O)c1ccc[n+]([O-])c1N` [compound 5, 5], at Can2-CA, the Ki worked out at 1.7 µM. The negative-log Ki (pKi) at VchCA was 5.68. As for `CCc1cc(C(C)C)c(C(N)=O)c(N)[n+]1[O-]` [compound 13, 13], the pKi on VchCA is 5.55. Consider `CCc1cc(C(C)C)[n+]([O-])c(N)c1C(N)=O` [compound 16, 16], for which, at SspCA, the Ki came to 58.5 µM. On the same count and under the same terms, the value for `CCc1cc(C)[n+]([O-])c(N)c1C(N)=O` [compound 19, 19] was 42.2 µM.

`CC(C)c1cc(-c2ccccc2)c(C(N)=O)c(N)[n+]1[O-]` [compound 20, 20]: the Ki at MgCA worked out at 46.2 µM. The compound `CCc1cc(-c2ccccc2)c(C(N)=O)c(N)[n+]1[O-]` [compound 21, 21] had a pKi at VchCA of 5.66. For the compound `NC(=O)c1ncc[n+]([O-])c1N` [compound 30, 30], the Ki on Can2-CA was 1.1 µM; on hCA IX, above 100 µM; at MgCA it was 6.7 µM.

On to `Cc1cnc(C(N)=O)c[n+]1[O-]` [compound 31, 31], for which the Ki on Can2-CA amounted to 1.3 µM.
